ChEMBL document CHEMBL2434905, “2-Amino-6-chloro-3,4-dihydroquinazoline: A novel 5-HT3 receptor antagonist with antidepressant character” (Bioorg Med Chem Lett, 2013)
Values belong to the compound of their own block, whether it stands above or below them. The source made the active and inactive calls. The calls are words filed in the database; no cut-off is given here.

Tests used:
Mus musculus = assay: Antidepressant activity in ICR mouse assessed as immobility time at 20 mg/kg, ip by tail suspension test; type: functional, organism-based; design: dose 20 mg/kg
[1] = target: T1, 5-hydroxytryptamine receptor 3A (Mus musculus, UniProt P23979); assay: Displacement of [3H]LY278584 from mouse 5-HT3A receptor
T1 sequence (P23979 whole entry): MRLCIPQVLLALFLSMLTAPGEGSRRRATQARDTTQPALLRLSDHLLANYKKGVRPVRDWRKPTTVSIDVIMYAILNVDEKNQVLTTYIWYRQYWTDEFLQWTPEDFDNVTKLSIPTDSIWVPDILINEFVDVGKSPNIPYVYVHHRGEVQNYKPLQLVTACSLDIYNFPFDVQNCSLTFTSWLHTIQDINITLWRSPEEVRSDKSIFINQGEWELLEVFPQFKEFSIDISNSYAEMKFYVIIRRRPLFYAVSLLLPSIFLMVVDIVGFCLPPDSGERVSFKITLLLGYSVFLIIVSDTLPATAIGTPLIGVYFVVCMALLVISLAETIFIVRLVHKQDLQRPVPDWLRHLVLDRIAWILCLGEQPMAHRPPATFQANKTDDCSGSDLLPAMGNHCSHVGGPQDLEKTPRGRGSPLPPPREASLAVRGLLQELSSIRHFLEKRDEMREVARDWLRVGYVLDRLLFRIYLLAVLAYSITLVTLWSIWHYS

[2] = target: T2, 5-hydroxytryptamine receptor 3A (Homo sapiens, UniProt P46098); assay: Displacement of [3H]GR65630 from human 5-HT3A receptor expressed in HEK293 cells by liquid scintillation counting analysis; type: cell-based
T2 sequence (P46098 whole entry): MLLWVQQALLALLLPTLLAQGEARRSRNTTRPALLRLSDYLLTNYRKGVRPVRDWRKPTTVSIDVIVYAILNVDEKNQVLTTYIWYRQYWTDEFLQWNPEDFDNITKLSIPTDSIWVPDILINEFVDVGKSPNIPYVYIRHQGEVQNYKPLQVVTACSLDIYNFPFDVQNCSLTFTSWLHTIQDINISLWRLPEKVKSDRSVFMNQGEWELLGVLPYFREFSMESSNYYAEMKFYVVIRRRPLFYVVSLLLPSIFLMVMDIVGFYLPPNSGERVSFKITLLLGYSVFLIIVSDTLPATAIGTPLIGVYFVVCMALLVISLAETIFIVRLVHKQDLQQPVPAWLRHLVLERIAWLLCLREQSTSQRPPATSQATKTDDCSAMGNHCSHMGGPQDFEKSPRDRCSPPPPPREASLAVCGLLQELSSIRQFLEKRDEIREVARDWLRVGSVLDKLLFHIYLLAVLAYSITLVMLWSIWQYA

SMILES: CNCCCN1c2ccccc2CCc2ccccc21
Activity (Mus musculus): Active

Ki [1]: 1970 nM
SMILES: NC1=Nc2cc(Cl)ccc2CN1

Ki [2]: 2900 nM
SMILES: CN1CCN2c3ncccc3Cc3ccccc3C2C1 (stereo not drawn) [MIRTAZAPINE]
